In patent US4138554A, “7-[D-α-(4-Hydroxy-1,5-naphthyridine-3-carboxamido)-α-phenyl (and p-hydroxyphenyl)acetamido]-3-carbamoyloxymethyl-3-cephem-4-carboxylic acids” (priority 1977, dated 1979):
≈ marks a conversion by molar mass, not a printed value. Like-named read-outs stand apart in the source and are kept apart here.

Tests used:
Type in all cases: cell-based
S. aureus = experiment: MIC by serial two-fold agar dilution (Mueller-Hinton agar), S. aureus; conditions: Staphylococcus aureus
Experimental: (§1) Minimum inhibitory concentrations (MIC) of BB-S520 were determined by serial two-fold agar dilution method using Steers' apparatus on Meuller-Hinton agar plate against 31 test organisms for the primary screening and also against 61 strains of Pseudomonas aeruginosa for the secondary evaluation. The results are shown in Table 1 and Table 2 along with those of BB-S514 and sulbenicillin.
(§2) Minimum inhibitory concentrations (MIC) of cephalosporins in the present study were determined by serial two-fold agar dilution method using Steers' apparatus on Mueller-Hinton agar plate against 31 test organisms for the primary screening and also against 61 strains of Pseudomonas aeruginosa for the secondary evaluation.

E. coli = experiment: MIC by serial two-fold agar dilution (Mueller-Hinton agar), E. coli; conditions: Escherichia coli, read-out: MIC
Experimental: as §1, §2

K. pneumoniae = experiment: MIC by serial two-fold agar dilution (Mueller-Hinton agar), K. pneumoniae; conditions: Klebsiella pneumoniae, K. pneumoniae A9977, Table 6
Experimental: as §1, §2

Klebsiella sp. = experiment: MIC by serial two-fold agar dilution (Mueller-Hinton agar), Klebsiella sp.; conditions: Klebsiella sp. A20452, Table 6; read-out: MIC
Experimental: as §1, §2

E. cloacae = experiment: MIC by serial two-fold agar dilution (Mueller-Hinton agar), E. cloacae; conditions: Enterobacter cloacae
Experimental: as §1, §2

P. mirabilis = experiment: MIC by serial two-fold agar dilution (Mueller-Hinton agar), P. mirabilis; conditions: Proteus mirabilis; P. mirabilis A9900, Table 6; read-out: MIC
Experimental: as §1, §2

P. vulgaris = experiment: MIC by serial two-fold agar dilution (Mueller-Hinton agar), P. vulgaris; conditions: Proteus vulgaris; P. vulgaris A9539, Table 6; read-out: MIC
Experimental: as §1, §2

P. morganii = experiment: MIC by serial two-fold agar dilution (Mueller-Hinton agar), P. morganii; conditions: Morganella morganii; P. morganii A9553, Table 6; read-out: MIC
Experimental: as §1, §2

S. enteritidis = experiment: MIC by serial two-fold agar dilution (Mueller-Hinton agar), S. enteritidis; conditions: Salmonella enterica; S. enteritidis A9531, Table 6; read-out: MIC
Experimental: as §1, §2

S. marcescens = experiment: MIC by serial two-fold agar dilution (Mueller-Hinton agar), S. marcescens; conditions: Serratia marcescens; S. marcescens A20019, Table 6; read-out: MIC
Experimental: as §1, §2

P. aeruginosa = experiment: MIC by serial two-fold agar dilution (Mueller-Hinton agar), P. aeruginosa, primary screening
Experimental: as §1, §2

Pseudomonas sp. = experiment: MIC by serial two-fold agar dilution (Mueller-Hinton agar), Pseudomonas sp.; conditions: Pseudomonas sp. A20358, Table 6
Experimental: as §2

For `CC1(C)S[C@@H]2[C@H](NC(=O)C(C(=O)O)c3ccccc3)C(=O)N2[C@H]1C(=O)O` (stereo partly shown) [Carbenicillin], the MIC (S. aureus; S. aureus BX-1633 A9606, Table 6, read-out: MIC) was 3.1 µg/mL (≈ 8.19 µM), the MIC (S. aureus; S. aureus Smith A9537, Table 6, read-out: MIC) was 0.2 µg/mL (≈ 0.529 µM) and the MIC (S. aureus; S. aureus Smith A15907, Table 6) was 25 µg/mL (≈ 66.1 µM). It also gave an MIC (S. aureus; S. aureus Smith A20239, Table 6, read-out: MIC) of 3.1 µg/mL (≈ 8.19 µM), an MIC (S. aureus; S. aureus Smith A20240, Table 6, read-out: MIC) of 6.3 µg/mL (≈ 16.6 µM) and an MIC (S. aureus; S. aureus Smith A20701, Table 6, read-out: MIC) of 25 µg/mL (≈ 66.1 µM). It also gave an MIC (E. coli; E. coli A9435, Table 6) of 6.3 µg/mL (≈ 16.6 µM), an MIC (E. coli; E. coli A9844, Table 6) of 0.2 µg/mL (≈ 0.529 µM) and an MIC (E. coli; E. coli A10664, Table 6) of 0.8 µg/mL (≈ 2.11 µM). For the same molecule, the MIC (E. coli; E. coli A20366, Table 6) was greater than 100 µg/mL, the MIC (E. coli; E. coli A20520, Table 6) was 3.1 µg/mL (≈ 8.19 µM) and the MIC (E. coli; E. coli A20732, Table 6) was 100 µg/mL (≈ 264 µM). It also gave an MIC (E. coli; E. coli A20898, Table 6) greater than 100 µg/mL, an MIC (E. coli; E. coli Juhl A15119, Table 6) of 1.6 µg/mL (≈ 4.23 µM) and an MIC (E. coli; E. coli NIHJ, Table 6) of 0.4 µg/mL (≈ 1.06 µM). It also gave an MIC (K. pneumoniae) of 3.1 µg/mL (≈ 8.19 µM), an MIC (Klebsiella sp.) of 6.3 µg/mL (≈ 16.6 µM) and an MIC (E. cloacae; E. cloacae A9656, Table 6) of 3.1 µg/mL (≈ 8.19 µM). For the same molecule, the MIC (E. cloacae; E. cloacae A9657, Table 6) was 12.5 µg/mL (≈ 33 µM), the MIC (E. cloacae; E. cloacae A9659, Table 6) was 3.1 µg/mL (≈ 8.19 µM) and the MIC (P. mirabilis) was 0.4 µg/mL (≈ 1.06 µM). The MIC (P. vulgaris) was 3.1 µg/mL (≈ 8.19 µM), the MIC (P. morganii) was greater than 100 µg/mL and the MIC (S. enteritidis) was 0.8 µg/mL (≈ 2.11 µM). The MIC (S. marcescens) was 3.1 µg/mL (≈ 8.19 µM), the MIC (P. aeruginosa; P. aeruginosa A20229, Table 6) was 12.5 µg/mL (≈ 33 µM) and the MIC (P. aeruginosa; Pseudomonas aeruginosa) was 12.5 µg/mL (≈ 33 µM). It also gave an MIC (P. aeruginosa; Pseudomonas aeruginosa, P. aeruginosa A9843, Table 6, read-out: MIC) of 25 µg/mL (≈ 66.1 µM), an MIC (P. aeruginosa; Pseudomonas aeruginosa, P. aeruginosa A9930, Table 6, read-out: MIC) of 25 µg/mL (≈ 66.1 µM) and an MIC (P. aeruginosa; Pseudomonas aeruginosa, P. aeruginosa A20717, Table 6, read-out: MIC) of 100 µg/mL (≈ 264 µM). It also gave an MIC (Pseudomonas sp.) of 6.3 µg/mL (≈ 16.6 µM).
